In brackets after ≈: the same amount, converted by molar mass.
Experiments:
[1] = Cytotoxicity against human THP1 cells at 50 ug/ml by MTT assay; format: cell-based; settings: THP-1 cells, read-out: INH
[2] = test system: Mycobacterium tuberculosis; experiment: Antimycobacterial activity against Mycobacterium tuberculosis H37Rv by microplate alamar blue assay; format: functional

SMILES | cytotoxicity at 50 ug/ml [1] | MIC [2]
C(=N\Nc1nc(-c2ccccc2)cs1)/c1ccc(-n2ccnc2)cc1 | 21.8% | 72.5 µM (≈ 25 µg/mL)
Fc1ccc(-c2csc(N/N=C/c3ccc(-n4ccnc4)cc3)n2)cc1 | 18.7% | 4.3 µM (≈ 1.56 µg/mL)
Clc1ccc(-c2csc(N/N=C/c3ccc(-n4ccnc4)cc3)n2)cc1 | 32.1% | 8.22 µM (≈ 3.12 µg/mL)
Brc1ccc(-c2csc(N/N=C/c3ccc(-n4ccnc4)cc3)n2)cc1 | 36.8% | 59.1 µM (≈ 25.1 µg/mL)
Clc1ccc(-c2csc(N/N=C/c3ccc(-n4ccnc4)cc3)n2)c(Cl)c1 | 28.8% | 15.1 µM (≈ 6.26 µg/mL)
Cc1ccc(-c2csc(N/N=C/c3ccc(-n4ccnc4)cc3)n2)cc1 | 36% | 33 µM (≈ 11.9 µg/mL)
COc1ccc(-c2csc(N/N=C/c3ccc(-n4ccnc4)cc3)n2)cc1 | 26.8% | 4.16 µM (≈ 1.56 µg/mL)
O=[N+]([O-])c1ccc(-c2csc(N/N=C/c3ccc(-n4ccnc4)cc3)n2)cc1 | 16.4% | 1.03 µM (≈ 0.402 µg/mL)
C(=N\Nc1nc(-c2ccccc2)cs1)/c1ccc(-n2cncn2)cc1 | 28.4% | 72.2 µM (≈ 25 µg/mL)
Fc1ccc(-c2csc(N/N=C/c3ccc(-n4cncn4)cc3)n2)cc1 | 35.9% | 4.29 µM (≈ 1.56 µg/mL)
Clc1ccc(-c2csc(N/N=C/c3ccc(-n4cncn4)cc3)n2)cc1 | 28.4% | 8.2 µM (≈ 3.12 µg/mL)
Brc1ccc(-c2csc(N/N=C/c3ccc(-n4cncn4)cc3)n2)cc1 | 32.6% | 29.5 µM (≈ 12.5 µg/mL)
Clc1ccc(-c2csc(N/N=C/c3ccc(-n4cncn4)cc3)n2)c(Cl)c1 | 8.9% | 3.76 µM (≈ 1.56 µg/mL)
Cc1ccc(-c2csc(N/N=C/c3ccc(-n4cncn4)cc3)n2)cc1 | 13.6% | 4.33 µM (≈ 1.56 µg/mL)
COc1ccc(-c2csc(N/N=C/c3ccc(-n4cncn4)cc3)n2)cc1 | 23% | 16.6 µM (≈ 6.26 µg/mL)
O=[N+]([O-])c1ccc(-c2csc(N/N=C/c3ccc(-n4cncn4)cc3)n2)cc1 | 12.9% | 3.99 µM (≈ 1.56 µg/mL)
CC[C@@H](CO)NCCN[C@@H](CC)CO [ETHAMBUTOL] | – | 7.65 µM (≈ 1.56 µg/mL)
NNC(=O)c1ccncc1 [ISONIAZID] | – | 0.36 µM (≈ 0.0494 µg/mL)
CO[C@H]1/C=C/O[C@@]2(C)Oc3c(C)c(O)c4c(O)c(c(/C=N/N5CCN(C)CC5)c(O)c4c3C2=O)NC(=O)/C(C)=C\C=C\[C@H](C)[C@H](O)[C@@H](C)[C@@H](O)[C@@H](C)[C@H](OC(C)=O)[C@@H]1C [RIFAMPIN] | – | 0.12 µM (≈ 0.0988 µg/mL)

Reference: ChEMBL document CHEMBL3232798, “Synthesis and antimycobacterial activities of some new thiazolylhydrazone derivatives” (Bioorg Med Chem Lett, 2014)
